Molecules are shown by their SMILES. “And” between values parts separate entries of the source, which are not always exact repeats. Equal values may be shown once.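 Growth conditions: 96-well plates. Treatment: test compound, 48 hours, 5 concentrations. Analysis: linear interpolation between bracketing concentrations; unreached endpoints set to highest concentration. GI50: concentration for 50% inhibition of growth. TGI marks complete inhibition of growth.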 Where only a bound is given, the exact number is not on record here.

Among the test systems are T-47D breast; HS 578T breast; HT29 colon; TK-10 renal; 786-0 renal; SN12C renal; SNB-19 CNS; MALME-3M melanoma; SR leukemia; SK-OV-3 ovarian.
Holding throughout (experiment): NCI tumour cell line growth inhibition, 48 h

Take `Cc1cnc(CNC(=O)c2c(=O)c3ccc(N4CCCN(C)CC4)nc3n3c2sc2ccccc23)cn1`: the GI50 is 17.3 µM in the assay with T-47D breast; 16.6 µM with HS 578T breast; 1.43 µM in the assay on HT29 colon; 8.94 µM with TK-10 renal; 6.17 µM in the assay with 786-0 renal; 1.32 µM in the assay with SN12C renal. Moreover, the GI50 is 1.52 µM in the assay with SNB-19 CNS, 9.24 µM with MALME-3M melanoma, 0.0311 µM in the assay with SR leukemia and 12.5 µM in the assay on SK-OV-3 ovarian. The TGI in the assay with T-47D breast worked out at 45.6 µM; with HS 578T breast, 47.4 µM; in the assay with HT29 colon it was 19 µM; in the assay on TK-10 renal it was 23 µM; with 786-0 renal it was 22.7 µM; in the assay on SN12C renal it was 19.9 µM. The TGI with SNB-19 CNS is 10.1 µM; with MALME-3M melanoma, 25.8 µM; in the assay with SR leukemia it was above 34.3 µM; in the assay with SK-OV-3 ovarian, 28.9 µM.

In the case of `C=C1c2ccoc2C[C@H]2[C@H]1CC[C@@]1(O)[C@@](C)(C(=O)OC)CCC[C@]21C`, the GI50 in the assay with T-47D breast was 27.3 µM; in the assay with HS 578T breast it was 71.9 µM; in the assay with HT29 colon, 17.5 µM; in the assay on TK-10 renal, above 100 µM; with 786-0 renal it was 40.1 µM; in the assay with SN12C renal, 16.9 µM. Also, the GI50 is 62.1 µM with SNB-19 CNS, 22.1 µM in the assay with MALME-3M melanoma, 13.1 µM in the assay with SR leukemia and above 100 µM in the assay on SK-OV-3 ovarian. The TGI in the assay on T-47D breast was above 100 µM; in the assay on HS 578T breast, above 100 µM; in the assay with HT29 colon, 81.6 µM; in the assay with TK-10 renal it was above 100 µM; with 786-0 renal it was above 100 µM; with SN12C renal, 34 µM. Besides, the TGI is above 100 µM in the assay with SNB-19 CNS, 56.2 µM in the assay on MALME-3M melanoma, 31.6 µM in the assay on SR leukemia and above 100 µM in the assay with SK-OV-3 ovarian.

Turning to `CCN1C(=O)N(CC)C2C1NN=c1s/c(=C\c3ccccn3)c(=O)n12` (stereo not given), the GI50 was 4.84 µM in the assay on T-47D breast; 2.76 µM with HS 578T breast; 0.681 µM in the assay with HT29 colon; 40.7 µM in the assay on TK-10 renal; 4.7 µM with 786-0 renal; 5.29 µM with SN12C renal. Besides, the GI50 is 3.04 µM in the assay with SNB-19 CNS, 1.63 µM in the assay with MALME-3M melanoma, 0.455 µM in the assay with SR leukemia and 3.92 µM in the assay with SK-OV-3 ovarian. Moreover, the TGI in the assay on T-47D breast, in the assay on HS 578T breast, in the assay on HT29 colon, with TK-10 renal, in the assay with 786-0 renal and in the assay on SN12C renal was above 100 µM throughout. The TGI in the assay on SNB-19 CNS, in the assay on MALME-3M melanoma, in the assay on SR leukemia and in the assay with SK-OV-3 ovarian was above 100 µM throughout.

In the case of `CC1=C(CCC(C)NCc2ccc(OCCCN3CCCCC3)cc2)C(C)(C)CCC1` (stereo not given), the GI50 was 1.63 µM with T-47D breast; 1.61 µM in the assay with HS 578T breast; 0.384 µM in the assay on HT29 colon; 1.69 µM with TK-10 renal; 1.6 µM in the assay on 786-0 renal; 1.87 µM in the assay with SN12C renal. In addition, the GI50 in the assay with SNB-19 CNS was 2.01 µM; in the assay on MALME-3M melanoma, 1.6 µM; in the assay on SR leukemia it was 0.221 µM; in the assay with SK-OV-3 ovarian, 2.06 µM. The TGI in the assay on T-47D breast amounted to 3.65 µM; in the assay with HS 578T breast, 3.79 µM; with HT29 colon, 1.38 µM; in the assay with TK-10 renal, 3.19 µM; in the assay on 786-0 renal it was 3.1 µM; with SN12C renal, 3.95 µM. In addition, the TGI in the assay with SNB-19 CNS is 4.26 µM; with MALME-3M melanoma it was 3.29 µM; in the assay with SR leukemia it was 0.608 µM; in the assay on SK-OV-3 ovarian, 3.76 µM.

As for `N#Cc1nc2c(S(=O)(=O)c3ccc(Cl)cc3)c(N)n(CCCN3CCOCC3)c2nc1C#N`, the GI50 in the assay with T-47D breast was 2.95 µM; with HS 578T breast, 1.76 µM; with HT29 colon, 5.96 µM; in the assay on TK-10 renal, 10.1 µM; in the assay with 786-0 renal, 17.3 µM; in the assay on SN12C renal, 10 µM. For the same compound, the GI50 in the assay with SNB-19 CNS is 28.2 µM; in the assay with MALME-3M melanoma it was 3.55 µM; with SR leukemia, 3.58 µM; with SK-OV-3 ovarian it was 27.1 µM. Also, the TGI in the assay with T-47D breast was 16.6 µM; in the assay on HS 578T breast, 5.06 µM; in the assay on HT29 colon, above 100 µM; with TK-10 renal, 23.6 µM; in the assay with 786-0 renal it was 52.8 µM; with SN12C renal, above 100 µM. The TGI is above 100 µM in the assay on SNB-19 CNS, 18.1 µM in the assay with MALME-3M melanoma, 31 µM in the assay with SR leukemia and above 100 µM with SK-OV-3 ovarian.

On to `COC(=O)Nc1nc2ccc(Oc3cccc(NC(=O)Nc4cc(C(F)(F)F)ccc4F)c3)cc2[nH]1`, for which the GI50 in the assay with T-47D breast is 8.64 µM; with HS 578T breast it was 7.47 µM; in the assay with HT29 colon it was 9.11 µM; in the assay with TK-10 renal, above 25 µM; with 786-0 renal it was above 25 µM; with SN12C renal, 15.1 µM. Moreover, the GI50 in the assay with SNB-19 CNS is above 25 µM; with MALME-3M melanoma, 6.04 µM; in the assay on SR leukemia, 10.2 µM; in the assay on SK-OV-3 ovarian, 10.2 µM. Also, the TGI in the assay with T-47D breast, in the assay on HS 578T breast, in the assay on HT29 colon, in the assay on TK-10 renal, in the assay with 786-0 renal and with SN12C renal was above 25 µM each time. Besides, the TGI in the assay on SNB-19 CNS, with MALME-3M melanoma, with SR leukemia and with SK-OV-3 ovarian was above 25 µM in each case.

As to `COc1ccc(Cl)c(Nc2nc3ccccc3nc2NS(=O)(=O)c2cccc(NC(=O)C(C)(C)N)c2)c1`, the GI50 with T-47D breast is 0.443 µM and 0.638 µM; in the assay on HS 578T breast, 2.37 µM and 1.69 µM; with HT29 colon it was 9.87 µM and 6.23 µM; with TK-10 renal it was 5.68 µM and 4.24 µM; in the assay on 786-0 renal, 6.19 µM and 5.38 µM; in the assay with SN12C renal it was 9.79 µM and > 10 µM. For the same compound, the GI50 in the assay with SNB-19 CNS was 12.4 µM and > 10 µM; in the assay with MALME-3M melanoma it was 10.2 µM and > 10 µM; in the assay on SR leukemia, 10.2 µM and > 10 µM; with SK-OV-3 ovarian, 5 µM and 1.89 µM. In addition, the TGI was 5.05 µM and 5.77 µM with T-47D breast; 15.1 µM and > 10 µM in the assay with HS 578T breast; 25.9 µM and > 10 µM in the assay with HT29 colon; 20.1 µM and > 10 µM with TK-10 renal; 19.8 µM and > 10 µM in the assay with 786-0 renal; 22.3 µM and > 10 µM with SN12C renal. Also, the TGI was 25.9 µM and > 10 µM in the assay on SNB-19 CNS; 24.9 µM and > 10 µM in the assay on MALME-3M melanoma; 28.1 µM and > 10 µM with SR leukemia; 18.6 µM and > 10 µM in the assay on SK-OV-3 ovarian.
